What was measured:
[1] = Solubility of TPPMS-Na in nonanal with various added solubilizing agents; assay type: physicochemical
Experimental: The solubility of a monosulfonated triphenylphosphine sodium salt ligand (TPPMS-Na) having the formula [drawing 28] was measured in C9 aldehyde (nonanal) in the presence of various added solubilizing agents and various mixtures of such agents for the ligand. […] The solubilizing agents and their mixtures were employed in a 1:2 weight:weight ratio with the nonanal.

[2] = Batch hydroformylation of dodecene-1 (Examples 13, 14, 18, 19)
[3] = 25 ppm Rh, 100 °C, Ligand/Rhodium 10, H2 20, CO 40 psia, 5.0 ml olefin
[4] = 200 ppm Rh, 100 °C, Ligand/Rhodium 100, H2 10, CO 40 psia, 5.0 ml olefin
[5] = 200 ppm Rh, 100 °C, Ligand/Rhodium 100, H2 100, CO 40 psia, 5.0 ml olefin
[6] = 200 ppm Rh, 120 °C, Ligand/Rhodium 200, H2 20, CO 40 psia, 5.0 ml olefin
[7] = 500 ppm Rh, 70 °C, Ligand/Rhodium 50, H2 20, CO 40 psia, 5.0 ml olefin
[8] = Texanol/TPEG-990 3:1, 100° C., 300 ppm Rh, 8.7 wt. % ligand, 75 psia 4:1 H2:CO
[9] = aqueous (water as solvent), 100° C., 300 ppm Rh, 90 psia 1:1 H2:CO
[10] = heptanal, CARBOWAX PEG-600, 100° C., 200 ppm Rh, 60 psia 2:1 H2:CO, two liquid organic layers
[11] = heptanal, TERGITOL 15-S-3/NIAX PPG-1025/Dimethyl Sulfoxide (4:1:1), 100° C., 200 ppm Rh, 60 psia 2:1 H2:CO
[12] = heptanal, TERGITOL 24-L-75N/CARBOWAX TPEG-990 (4:1), 100° C., 200 ppm Rh, 60 psia 2:1 H2:CO
[13] = heptanal, TERGITOL NP-9, 100° C., 200 ppm Rh, 60 psia 2:1 H2:CO
[14] = non-aqueous (Texanol/Carbowax TPEG990 2.6:1), 100° C., 300 ppm Rh, 90 psia 1:1 H2:CO

## O=S(=O)([O-])c1cccc(P(c2ccccc2)c2ccccc2)c1.[Na+]
[1]; TERGITOL 24-L-50N/CARBOWAX PEG 600 (4:1), 100 deg. C.
  TPPMS-Na Solubility: > 10 Weight Percent
[1]; TERGITOL 24-L-50N, 25 deg. C.
  TPPMS-Na Solubility: 4 Weight Percent
[1]; TERGITOL 24-L-50N, 100 deg. C.
  TPPMS-Na Solubility: 8 Weight Percent
[1]; TERGITOL 24-L-75N/CARBOWAX TPEG 990 (4:1), 25 deg. C.
  TPPMS-Na Solubility: 12 Weight Percent
[1]; TERGITOL 24-L-75N/CARBOWAX TPEG 990 (4:1), 100 deg. C.
  TPPMS-Na Solubility: 14 Weight Percent
[1]; TERGITOL 24-L-75N/CARBOWAX TPEG 990/Methanol (4:1:1), 25 deg. C.
  TPPMS-Na Solubility: > 16 Weight Percent
[1]; TERGITOL 24-L-75N/NIAX PPG 1025 (2:1), 25 deg. C.
  TPPMS-Na Solubility: > 10 Weight Percent
[1]; TERGITOL 24-L-75N/NIAX PPG 1025 (2:1), 100 deg. C.
  TPPMS-Na Solubility: > 10 Weight Percent
[1]; TERGITOL 24-L-75N, 25 deg. C.
  TPPMS-Na Solubility: 6 Weight Percent
[1]; TERGITOL 24-L-75N, 100 deg. C.
  TPPMS-Na Solubility: 8 Weight Percent
[1]; TERGITOL 25-L-5, 25 deg. C.
  TPPMS-Na Solubility: 4 Weight Percent
[1]; TERGITOL 25-L-5, 100 deg. C.
  TPPMS-Na Solubility: 6 Weight Percent
[1]; TERGITOL 26-L-5, 25 deg. C.
  TPPMS-Na Solubility: 2 Weight Percent
[1]; TERGITOL 26-L-5, 100 deg. C.
  TPPMS-Na Solubility: 6 Weight Percent
[1]; TERGITOL NP-4/CARBOWAX TPEG 990 (4:1), 25 deg. C.
  TPPMS-Na Solubility: 8 Weight Percent
[1]; TERGITOL NP-4/CARBOWAX TPEG 990 (4:1), 100 deg. C.
  TPPMS-Na Solubility: 10 Weight Percent
[1]; TERGITOL NP-4, 25 deg. C.
  TPPMS-Na Solubility: 2 Weight Percent
[1]; TERGITOL NP-4, 100 deg. C.
  TPPMS-Na Solubility: 6 Weight Percent
[1]; TERGITOL NP-9/CARBOWAX PEG 600 (3:1), 25 deg. C.
  TPPMS-Na Solubility: 10 Weight Percent
[1]; TERGITOL NP-9/CARBOWAX PEG 600 (3:1), 100 deg. C.
  TPPMS-Na Solubility: > 10 Weight Percent
[1]; TERGITOL NP-9/CARBOWAX PEG 600/Methanol (3:1:1), 25 deg. C.
  TPPMS-Na Solubility: > 12 Weight Percent
[1]; TERGITOL NP-9, 25 deg. C.
  TPPMS-Na Solubility: 4 Weight Percent
[1]; TERGITOL NP-9, 100 deg. C.
  TPPMS-Na Solubility: 6 Weight Percent
[2]; [3]
  Linear/Branched Aldehyde Mole Ratio: 3.4
  Reaction Rate (C13 aldehydes): 1.37 Gram/Moles L/Hr
[2]; [4]
  Linear/Branched Aldehyde Mole Ratio: 16.9
  Reaction Rate (C13 aldehydes): 1.13 Gram/Moles L/Hr
[2]; [5]
  Linear/Branched Aldehyde Mole Ratio: 4.1
  Reaction Rate (C13 aldehydes): 1.41 Gram/Moles L/Hr
[2]; [6]
  Linear/Branched Aldehyde Mole Ratio: 9.56
  Reaction Rate (C13 aldehydes): 1.24 Gram/Moles L/Hr
[2]; [7]
  Linear/Branched Aldehyde Mole Ratio: 5.5
  Reaction Rate (C13 aldehydes): 0.51 Gram/Moles L/Hr
[2]; [8]
  Linear/Branched Aldehyde Mole Ratio: 10.8
  Reaction Rate: 1.04 G moles/L/hr
[2]; [9]
  Linear/Branched Aldehyde Mole Ratio: 43.4
  Reaction Rate: 0.03 G Moles/L/Hr
[2]; [10]
  Linear/Branched Aldehyde Mole Ratio: 12.0
  Reaction Rate: 0.72 G moles/L/hr
[2]; [11]
  Linear/Branched Aldehyde Mole Ratio: 13.2
  Reaction Rate: 0.51 G moles/L/hr
[2]; [12]
  Linear/Branched Aldehyde Mole Ratio: 13.6
  Reaction Rate: 0.62 G moles/L/hr
[2]; [13]
  Linear/Branched Aldehyde Mole Ratio: 14.2
  Reaction Rate: 0.77 G moles/L/hr
[2]; [14]
  Linear/Branched Aldehyde Mole Ratio: 6.6
  Reaction Rate: 4.49 G Moles/L/Hr

Source: patent US4731486A, “Hydroformylation using low volatile phosphine ligands” (Union Carbide Corporation, priority 1986, dated 1988)
